Experimental findings from US10363257B2 (ZENITH EPIGENETICS LTD., priority 2013, dated 2019) are described below.

Each structure is given as a SMILES string.

Experiment [1] deals with T1, Brd4 bromodomain 1 (BRD4(1)) (Homo sapiens, UniProt O60885).
T1 construct: made in house; host or cells: E. coli BL21(DE3)
Put plainly: Inhibition of tetra-acetylated histone H4 binding to Brd4 bromodomain 1 (TR-FRET). Particulars: tetra-acetylated histone H4 peptide, first bromodomain of Brd4. The procedure, abridged: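 Serially diluted compound (0.2% DMSO) incubated 2 h at room temperature with 200 nM N-His BRD4 bromodomain 1 and 25-50 nM biotinylated tetra-acetyl H4 peptide, detected via Eu-streptavidin/XL665 anti-His. Loss of 665 nm relative to 620 nm signal gave IC50 from dose-response.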
(In general: Time-resolved FRET reads energy transfer from a long-lived donor to a nearby acceptor.)

For a further experiment, the system named is human AML MV-4-11 cells. Put plainly: Inhibition of cell proliferation in MV4-11 cells (CellTiter Aqueous One). Format: cell-based. To be noted: for IC50: MV4-11, 72 h; for Cell Proliferation activity: 72 h. The procedure, abridged: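 IC50 values come from blank-corrected proliferation relative to DMSO controls, read as 490 nm absorbance 3–4 h after CellTiter Aqueous One addition. Before that, cells seeded at 5×10^4/well were exposed for 72 h (37° C, 5% CO2) to triplicate two-fold compound dilutions spanning 30–0.2 μM.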

Another experiment deals with hIL-6 mRNA. The experiment can be described thus: Inhibition of hIL-6 mRNA transcription in LPS-stimulated U937 cells. To be noted: Homo sapiens, U-937; PMA-differentiated U937 cells, 1 h pretreatment, 1 ug/mL LPS stimulation, 3 h; read-out: IL-6 activity (Inhibition of hIL-6 mRNA Transcription). Format: cell-based. As to the method:
In this example, hIL-6 mRNA in tissue culture cells was quantitated to measure the transcriptional inhibition of hIL-6 when treated with a compound of the invention.
Human leukemic monocyte lymphoma U937 cells (CRL-1593.2) were plated at a density of 3.2×10^4 cells per well in a 96-well plate in 100 μL RPMI-1640 containing 10% FBS and penicillin/streptomycin, and differentiated into macrophages for 3 days in 60 ng/mL PMA ([…]) at 37° C. in 5% CO2 prior to the addition of compound. The cells were pretreated for 1 h with increasing concentrations of test compound in 0.1% DMSO prior to stimulation with 1 ug/mL lipopolysaccharide from Escherichia coli. Triplicate wells were used for each concentration. The cells were incubated at 37° C., 5% CO2 for 3 h before the cells were harvested. At time of harvest, media was removed and cells were rinsed in 200 μL PBS. Cells were harvested using the mRNA Catcher PLUS kit according to manufacturer's instructions. The eluted mRNA was then used in a one-step quantitative real-time PCR reaction using components of the RNA UltraSense™ One-Step Kit (Life Technologies) together with Applied Biosystems TaqMan® primer-probes for hIL-6 and Cyclophilin. Real-time PCR plates were run on a VIa™ 7 real time PCR machine (Applied Biosystems), data was analyzed, normalizing the Ct values for hIL-6 to an internal control, prior to determining the fold expression of each sample, relative to the control.

In the next experiment the test system is c-myc. The experiment can be described thus: Inhibition of c-myc expression (mRNA, real-time PCR) in MV4-11 cells. The format is cell-based. Particulars: Human AML MV4-11 cells, 3 h, cMYC mRNA. As to the method:
MV4-11 cells (CRL-9591) were plated at a density of 2.5×10^4 cells per well in 96 well U-bottom plates and treated with increasing concentrations of test compound or DMSO (0.1%) in IMDM media containing 10% FBS and penicillin/streptomycin, and incubated for 3 h at 37° C. Triplicate wells were used for each concentration. Cells were pelleted by centrifugation and harvested using the mRNA Catcher PLUS kit according to manufacturer's instructions. The eluted mRNA isolated was then used in a one-step quantitative real-time PCR reaction, using components of the RNA UltraSense™ One-Step Kit (Life Technologies) together with Applied Biosystems TaqMan® primer-probes for cMYC and Cyclophilin. Real-time PCR plates were run on a VIaTM7 real time PCR machine (Applied Biosystems), data was analyzed, normalizing the Ct values for cMYC to an internal control, prior to determining the fold expression of each sample, relative to the control.

For `Cc1noc(C)c1-c1cc([N+](=O)[O-])c2nc(N3CCN(C)CC3)n(Cc3ccccc3)c2c1` [compound 136, 4-(1-benzyl-2-(4-methylpiperazin-1-yl)-4-nitro-1H-benzo[d]imidazol-6-yl)-3,5-dimethylisoxazole], the IC50 in experiment [1] is at most 300 nM; in the experiment on human AML MV-4-11 cells, 300 to 3000 nM; in the experiment on hIL-6 mRNA, 300 to 3000 nM.
In the case of `Cc1noc(C)c1-c1ccc2ncc(=O)n(Cc3ccccc3)c2c1` [Example Compound 11, 1-Benzyl-7-(3,5-dimethylisoxazol-4-yl)quinoxalin-2(1H)-one], the figures for the IC50 (in experiment [1]; in the experiment with hIL-6 mRNA) were at most 300 nM and 300 to 3000 nM, respectively. The “Cell Proliferation activity” value in the experiment with human AML MV-4-11 cells is “Not active”.
`CC(=O)Nc1cc(-c2c(C)noc2C)cc2c1n(C)c(=O)n2Cc1ccccc1` [compound 164, N-(1-benzyl-6-(3,5-dimethylisoxazol-4-yl)-3-methyl-2-oxo-2,3-dihydro-1H-benzo[d]imidazol-4-yl)acetamide]: the IC50 (in experiment [1]; with hIL-6 mRNA) was at most 300 nM each time.
For `Cc1noc(C)c1-c1cc(N)c2[nH]c(=O)n(Cc3ccc(Cl)cc3)c2c1` [compound 90, 4-amino-1-(4-chlorobenzyl)-6-(3,5-dimethylisoxazol-4-yl)-1H-benzo[d]imidazol-2(3H)-one], the results for the IC50 (in experiment [1]; in the experiment on c-myc; with human AML MV-4-11 cells) were at most 300 nM, at most 300 nM and 300 to 3000 nM, respectively.
Regarding `Cc1noc(C)c1-c1cc([N+](=O)[O-])c2[nH]c(=O)n(C(C)c3ccccc3)c2c1` (stereo not shown) [compound 110, 6-(3,5-dimethylisoxazol-4-yl)-4-nitro-1-(1-phenylethyl)-1H-benzo[d]imidazol-2(3H)-one], the values for the IC50 (in experiment [1]; with c-myc; with human AML MV-4-11 cells) were at most 300 nM, 300 to 3000 nM and 300 to 3000 nM, respectively.
Turning to `CC(=O)Nc1cc(-c2c(C)noc2C)cc2c1nc(N1CCC1)n2Cc1ccccc1` [compound 130, N-(2-(azetidin-1-yl)-1-benzyl-6-(3,5-dimethylisoxazol-4-yl)-1H-benzo[d]imidazol-4-yl)acetamide], the figures for the IC50 (in experiment [1]; in the experiment with c-myc; in the experiment with human AML MV-4-11 cells) were at most 300 nM, 300 to 3000 nM and 300 to 3000 nM, respectively.
Turning to `COc1ccc(Cn2c(=O)[nH]c3c(N)cc(-c4c(C)noc4C)cc32)cc1` [compound 104, 4-amino-6-(3,5-dimethylisoxazol-4-yl)-1-(4-methoxybenzyl)-1H-benzo[d]imidazol-2(3H)-one], the figures for the IC50 (in experiment [1]; in the experiment with c-myc; with human AML MV-4-11 cells) were at most 300 nM, 300 to 3000 nM and 300 to 3000 nM, respectively.
Consider `Cc1noc(C)c1-c1cc(O)c2nc(C)n(Cc3ccccc3)c2c1` [compound 173, 1-benzyl-6-(3,5-dimethylisoxazol-4-yl)-2-methyl-1H-benzo[d]imidazol-4-ol], for which the IC50 is at most 300 nM in experiment [1], at most 300 nM with c-myc and 300 to 3000 nM with human AML MV-4-11 cells.
As for `Cc1noc(C)c1-c1cnc2nc(C)n(CC3CCCCC3)c2c1` [compound 191, 4-(1-(cyclohexylmethyl)-2-methyl-1H-imidazo[4,5-b]pyridin-6-yl)-3,5-dimethylisoxazole], the IC50 in experiment [1] was at most 300 nM; with c-myc, at most 300 nM; in the experiment on human AML MV-4-11 cells it was 300 to 3000 nM.
Take `Cc1noc(C)c1-c1cnc2nc(N3CCNCC3)n(Cc3ccccc3)c2c1` [compound 213, 4-(1-benzyl-2-(piperazin-1-yl)-1H-imidazo[4,5-b]pyridin-6-yl)-3,5-dimethylisoxazole]: the IC50 is at most 300 nM in experiment [1], 300 to 3000 nM with c-myc and 300 to 3000 nM with human AML MV-4-11 cells.
With `Cc1noc(C)c1-c1cnc2nc(NC3CCOCC3)n(CC3CCCC3)c2c1` [compound 222, 1-(cyclopentylmethyl)-6-(3,5-dimethylisoxazol-4-yl)-N-(tetrahydro-2H-pyran-4-yl)-1H-imidazo[4,5-b]pyridin-2-amine], the IC50 (in experiment [1]; with c-myc; in the experiment on human AML MV-4-11 cells) was at most 300 nM in each case.
With `CCNc1nc2c(N)cc(-c3c(C)noc3C)cc2n1C(C)c1ccccc1` (stereo not shown) [compound 134, 6-(3,5-dimethylisoxazol-4-yl)-N2-ethyl-1-(1-phenylethyl)-1H-benzo[d]imidazole-2,4-diamine], the IC50 (in experiment [1]; in the experiment on c-myc; in the experiment with human AML MV-4-11 cells) was at most 300 nM each time.
In the case of `Cc1noc(C)c1Nc1cc(N)c2nc(C)n(Cc3ccccc3)c2c1` [compound 142, 1-benzyl-N6-(3,5-dimethylisoxazol-4-yl)-2-methyl-1H-benzo[d]imidazole-4,6-diamine], the IC50 in experiment [1] lay in the range of 300 to 3000 nM; with c-myc, 300 to 3000 nM; with human AML MV-4-11 cells, 3000 to 30000 nM.
For the compound `Cc1noc(C)c1-c1cc(N)c2[nH]c(=O)n([C@H](C)c3ccccc3)c2c1` [compound 179, (R)-4-amino-6-(3,5-dimethylisoxazol-4-yl)-1-(1-phenylethyl)-1H-benzo[d]imidazol-2(3H)-one], the IC50 (in experiment [1]; in the experiment with c-myc; with human AML MV-4-11 cells) was at most 300 nM each time.
As for `Cc1noc(C)c1-c1cnc2nc(C)n(CC3CCCC3)c2c1` [compound 192, 4-(1-(cyclopentylmethyl)-2-methyl-1H-imidazo[4,5-b]pyridin-6-yl)-3,5-dimethylisoxazole], the IC50 is at most 300 nM in experiment [1], 300 to 3000 nM in the experiment on c-myc and 300 to 3000 nM in the experiment with human AML MV-4-11 cells.
For the compound `CCc1nc2ncc(-c3c(C)noc3C)cc2n1Cc1ccccc1` [compound 128, 4-(1-benzyl-2-ethyl-1H-imidazo[4,5-b]pyridin-6-yl)-3,5-dimethylisoxazole], the IC50 in experiment [1] is at most 300 nM; in the experiment with c-myc it was 300 to 3000 nM; in the experiment on human AML MV-4-11 cells it was 300 to 3000 nM.
As for `Cn1nccc1-c1cnc2nc(NC3CCOCC3)n(Cc3ccccc3)c2c1` [compound 176, 1-benzyl-6-(1-methyl-1H-pyrazol-5-yl)-N-(tetrahydro-2H-pyran-4-yl)-1H-imidazo[4,5-b]pyridin-2-amine], the IC50 (in experiment [1]; in the experiment on c-myc; with human AML MV-4-11 cells) was 300 to 3000 nM in each case.
In the case of `Cn1nccc1-c1cc([N+](=O)[O-])c2c(c1)n(Cc1ccccc1)c(=O)n2C` [compound 198, 1-benzyl-3-methyl-6-(1-methyl-1H-pyrazol-5-yl)-4-nitro-1H-benzo[d]imidazol-2(3H)-one], the values for the IC50 (in experiment [1]; with c-myc; in the experiment on human AML MV-4-11 cells) were at most 300 nM, 3000 to 30000 nM and 3000 to 30000 nM, respectively.
Regarding `Cc1noc(C)c1-c1cc(N)c2[nH]c(=S)n(Cc3ccccc3)c2c1` [compound 177, 4-amino-1-benzyl-6-(3,5-dimethylisoxazol-4-yl)-1H-benzo[d]imidazole-2(3H)-thione], the IC50 was 300 to 3000 nM in experiment [1], at most 300 nM with c-myc and at most 300 nM in the experiment on human AML MV-4-11 cells.
As for `Cc1noc(C)c1-c1cc2c(ccn2Cc2ccccc2)[nH]c1=O` [Example Compound 56, 1-benzyl-6-(3,5-dimethylisoxazol-4-yl)-1H-pyrrolo[3,2-b]pyridin-5(4H)-one], the IC50 is 300 to 3000 nM in experiment [1] and 3000 to 30000 nM in the experiment with hIL-6 mRNA.
`Cn1nccc1-c1cnc2[nH]c(=O)n(Cc3ccccc3)c2c1` [compound 171, 1-benzyl-6-(1-methyl-1H-pyrazol-5-yl)-1H-imidazo[4,5-b]pyridin-2(3H)-one]: the IC50 (in experiment [1]; in the experiment on c-myc; in the experiment on human AML MV-4-11 cells) was 300 to 3000 nM each time.
With `Cc1noc(C)c1-c1cc(Br)c2nc(C)n(CCc3ccccc3)c2c1` [compound 186, 4-(4-bromo-2-methyl-1-phenethyl-1H-benzo[d]imidazol-6-yl)-3,5-dimethylisoxazole], the IC50 was at most 300 nM in experiment [1] and 3000 to 30000 nM in the experiment with c-myc. For the same compound, the “Cell Proliferation activity” value in the experiment on human AML MV-4-11 cells is listed as “Not active”.
